Laboratory results taken from the NIST ThermoML archive (doi:10.1016/j.jct.2013.01.026).

How the values were obtained:
[1] = refractive index (other wavelength) (dimensionless); details: 298.15 K, 101.3 kPa, Liquid, Standard Abbe refractometry
[2] = refractive index (other wavelength) (dimensionless); wn = mass fraction of the nth substance listed; details: 298.15 K, 101.3 kPa, Liquid, Standard Abbe refractometry

c1ccc2c(c1)CCCC2 [1,2,3,4-tetrahydronaphthalene]
[1]
Details	refractive index
Wavelength=670 nm	1.53479
Wavelength=925 nm	1.52642

c1ccc2c(c1)CCCC2 [1,2,3,4-tetrahydronaphthalene] + CCCCCCCCCCCC
refractive index, [2]
Details	w2 = 0	w2 = 0.1	w2 = 0.1999	w2 = 0.2999	w2 = 0.4001	w2 = 0.4999	w2 = 0.6002	w2 = 0.6999	w2 = 0.8	w2 = 0.9001
Wavelength=670 nm	1.53479	1.51956	1.505	1.49244	1.47987	1.46832	1.45728	1.44674	1.43694	1.42736
Wavelength=925 nm	1.52642	1.51181	1.49762	1.48558	1.47343	1.4622	1.45157	1.44149	1.43179	1.42273

CC(C)Cc1ccccc1 [(2-methylpropyl)benzene]
[1]
Details	refractive index
Wavelength=670 nm	1.48071
Wavelength=925 nm	1.47345

CC(C)Cc1ccccc1 [(2-methylpropyl)benzene] + CCCCCCCCCCCC
refractive index, [2]
Details	w2 = 0.0998	w2 = 0.2001	w2 = 0.3002	w2 = 0.4	w2 = 0.4999	w2 = 0.6	w2 = 0.7001	w2 = 0.8002	w2 = 0.9001
Wavelength=670 nm	1.47308	1.46588	1.45898	1.45233	1.44607	1.44006	1.43407	1.42875	1.42337
Wavelength=925 nm	1.46604	1.45912	1.45266	1.44638	1.44043	1.43444	1.42884	1.42387	1.4187

CC(C)Cc1ccccc1 [(2-methylpropyl)benzene] + c1ccc2c(c1)CCCC2
refractive index, [2]
Details	w2 = 0	w2 = 0.1003	w2 = 0.2	w2 = 0.2999	w2 = 0.3977	w2 = 0.4996	w2 = 0.6002	w2 = 0.699	w2 = 0.8001	w2 = 0.8997
Wavelength=670 nm	1.48071	1.48573	1.49084	1.49587	1.50109	1.50663	1.51197	1.51743	1.52313	1.52865
Wavelength=925 nm	1.47345	1.47803	1.48337	1.48805	1.49344	1.49865	1.50413	1.5092	1.51499	1.52005

CCCCCCCCCCCC [dodecane]
[1]
Details	refractive index
Wavelength=670 nm	1.41845
Wavelength=925 nm	1.41407

CCCCCCCCCCCC [dodecane] + CC(C)Cc1ccccc1
[2], w1 = 1
Details	refractive index
Wavelength=670 nm	1.41845
Wavelength=925 nm	1.41407
